From PubChem BioAssay AID651772 (Broad Institute, 2012)
Where “and” joins values, the source holds several entries; their conditions need not be identical. Identical values can stand only once. Records with an inconclusive call do not appear. Calls of active or inactive are those of the source.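 The calls were made as follows: active = compounds whose fitted curve reaches 40% higher CDK2 Ct shift, meaning less CDK2 mRNA, within twice the top dose; inconclusive = flat curve with 30 to 70% opposite effect, or poor fit; inactive = the rest.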

Columns and labels:
[1] = tested on: SK-MEL-5 CDK2 mRNA, RT-qPCR delta-delta-Ct, overnight; assay: CDK2 transcript decrease in melanoma cells – cell-based, SK-MEL-5, RT-qPCR, dry powder samples, orthogonal assay for MITF inhibitor project, dose response (AID 651772)
[2] = as above; conditions: SK-MEL-5 CDK2 mRNA, RT-qPCR delta-delta-Ct, overnight

SMILES | AC40 [1] | outcome [2]
O=C1C=C(NS(=O)(=O)c2ccccc2)C(=O)c2ccccc21 | 0.138 µM | 
CC(C)N1CCN(C2=C(Nc3ccc(F)cc3)C(=O)c3ccccc3C2=O)CC1 | 6.51 µM | 
CN1CCN(C2=C(Nc3ccc(F)cc3F)C(=O)c3ccccc3C2=O)CC1 | 2.45 µM | 
CN1CCN(C2=C(NS(=O)(=O)c3ccc(Br)s3)C(=O)c3ccccc3C2=O)CC1 | 7.94 µM | 
COC1=C(NS(=O)(=O)c2ccc(Br)cc2)C(=O)c2ccccc2C1=O | 4.29 µM | 
NC1=C(NC(=O)c2ccccc2)C(=O)c2ccccc2C1=O | 0.882 µM | 
O=C1C=C(Nc2ccccc2)C(=O)c2ccccc21 | 0.571 µM and 0.394 µM | 
NC1=C(NS(=O)(=O)c2cccs2)C(=O)c2ccccc2C1=O | 1.98 µM | 
Cc1nc2ccccc2n1/N=C/c1ccc([N+](=O)[O-])s1 | 2.92 µM | 
O=C1C=C(NS(=O)(=O)c2cccs2)C(=O)c2ccccc21 | 0.339 µM | 
NC1=C(NS(=O)(=O)c2ccccc2)C(=O)c2ccccc2C1=O | 4.39 µM | 
O=C1C(Nc2ccc(Cl)cc2)=C(N2CCCC2)C(=O)c2ccccc21 | 9.91 µM | 
O=C1C=C(NS(=O)(=O)c2ccc(Br)cc2)C(=O)c2ccccc21 | 0.358 µM | 
CCN1CCN(C2=C(Nc3ccc(F)cc3F)C(=O)c3ccccc3C2=O)CC1 | 1.41 µM | 
NC1=C(NS(=O)(=O)c2ccc(Br)s2)C(=O)c2ccccc2C1=O |  | inactive
COC1=C(NS(=O)(=O)c2ccccc2)C(=O)c2ccccc2C1=O | 3.5 µM | 
COC1=C(Nc2ccccc2)C(=O)c2ccccc2C1=O | 0.204 µM | 
O=C1C(Nc2ccc(F)cc2)=C(N2CCCCC2)C(=O)c2ccccc21 | 8.22 µM | 
O=C1C(Nc2ccccc2)=C(c2ccccc2)C(=O)c2ccccc21 | 7.06 µM | 
COC1=C(NS(=O)(=O)c2cccs2)C(=O)c2ccccc2C1=O | 9.34 µM | 
CCN1CCN(C2=C(NS(=O)(=O)c3ccc(Br)cc3)C(=O)c3ccccc3C2=O)CC1 | 14.1 µM | 
O=C1C=C(Nc2ccc([N+](=O)[O-])c(C(F)(F)F)c2)C(=O)c2ccccc21 | 0.0787 µM | 
O=C(NC1=C(Cl)C(=O)c2ccccc2C1=O)c1ccccc1 | 0.203 µM | 
CCN1CCN(C2=C(NC(=O)c3ccccc3)C(=O)c3ccccc3C2=O)CC1 | 2.41 µM | 
NS(=O)(=O)c1ccc(NC2=CC(=O)c3ccccc3C2=O)cc1 | 0.141 µM | 
C=CCNC1=C(Cl)C(=O)c2ccccc2C1=O | 1.46 µM | 
O=C1C(NS(=O)(=O)c2cccs2)=C(c2ccccc2)C(=O)c2ccccc21 | 3.79 µM | 
NC1=CC(=O)c2ccccc2C1=O | 0.3 µM | 
CC(C)N1CCN(C2=C(Nc3ccc(F)cc3F)C(=O)c3ccccc3C2=O)CC1 | 1.77 µM | 
NC1=C(NS(=O)(=O)c2ccc(Br)cc2)C(=O)c2ccccc2C1=O | 9.61 µM | 
